{"source": "paper PMC6941823", "about": "“A dispensable paralog of succinate dehydrogenase subunit C mediates standing resistance towards a subclass of SDHI fungicides in Zymoseptoria tritici” (PLoS Pathogens, 2019)", "key": {"[1]": {"target": "SQR (SDHC / altC) of IPO323 pTet::SDHC3 transformant, repressed (Zymoseptoria tritici, UniProt A0A1X7RQW2+F9X9V6+F9XH52+O42772)", "sequence (F9XH52 44-187)": "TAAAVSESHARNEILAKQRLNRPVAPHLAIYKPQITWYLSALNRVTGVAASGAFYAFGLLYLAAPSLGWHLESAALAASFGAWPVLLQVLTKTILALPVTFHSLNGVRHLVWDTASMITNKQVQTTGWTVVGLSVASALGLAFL", "sequence (O42772 20-297)": "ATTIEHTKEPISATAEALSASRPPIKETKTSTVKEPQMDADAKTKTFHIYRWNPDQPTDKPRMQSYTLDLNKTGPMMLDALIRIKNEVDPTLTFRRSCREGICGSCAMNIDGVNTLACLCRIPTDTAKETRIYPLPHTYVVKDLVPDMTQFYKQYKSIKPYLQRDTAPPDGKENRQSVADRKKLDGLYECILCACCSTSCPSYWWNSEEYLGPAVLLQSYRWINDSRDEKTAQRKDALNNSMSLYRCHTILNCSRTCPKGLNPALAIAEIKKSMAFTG", "sequence (F9X9V6 1-193)": "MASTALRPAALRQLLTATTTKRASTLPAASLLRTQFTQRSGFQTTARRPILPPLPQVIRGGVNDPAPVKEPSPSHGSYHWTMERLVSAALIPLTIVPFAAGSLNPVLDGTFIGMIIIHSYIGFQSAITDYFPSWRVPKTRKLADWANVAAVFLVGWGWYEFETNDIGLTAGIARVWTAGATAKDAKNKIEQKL", "sequence (A0A1X7RQW2 36-181)": "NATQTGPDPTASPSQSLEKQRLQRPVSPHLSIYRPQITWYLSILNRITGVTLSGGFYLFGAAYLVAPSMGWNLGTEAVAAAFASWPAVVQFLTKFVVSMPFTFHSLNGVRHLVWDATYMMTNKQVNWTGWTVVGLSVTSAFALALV", "sequence (F9WWR1 41-643 partner)": "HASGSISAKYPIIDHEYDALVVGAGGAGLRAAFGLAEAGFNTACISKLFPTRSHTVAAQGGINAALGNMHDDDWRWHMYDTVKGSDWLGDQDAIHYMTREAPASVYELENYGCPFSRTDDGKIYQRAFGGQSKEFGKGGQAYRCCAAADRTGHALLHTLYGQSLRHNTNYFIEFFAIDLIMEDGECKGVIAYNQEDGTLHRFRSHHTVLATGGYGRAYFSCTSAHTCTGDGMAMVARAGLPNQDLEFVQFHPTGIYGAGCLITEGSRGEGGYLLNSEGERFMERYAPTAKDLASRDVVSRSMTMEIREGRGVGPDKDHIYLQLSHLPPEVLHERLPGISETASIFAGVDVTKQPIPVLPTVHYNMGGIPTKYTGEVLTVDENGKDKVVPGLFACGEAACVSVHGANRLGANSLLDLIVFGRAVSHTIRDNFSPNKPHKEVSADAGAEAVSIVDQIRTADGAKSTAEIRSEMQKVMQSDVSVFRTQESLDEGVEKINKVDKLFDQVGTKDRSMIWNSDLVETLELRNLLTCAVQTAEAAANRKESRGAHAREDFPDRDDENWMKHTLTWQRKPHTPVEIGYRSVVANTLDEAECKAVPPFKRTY", "assay": "Succinate-quinone (SQR) SDHI sensitivity assay on purified mitochondria, IPO323 pTet::SDHC3 repressed", "format": "biochemical", "summary_of_the_method": "(§1)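 Succinate:ubiquinone/DCPIP reductase inhibition measured on purified mitochondria from Zymoseptoria tritici strains carrying either a single C-subunit gene (ZtSDHC1, ZtSDHC1_A84I or ZtSDHC3) or both ZtSDHC1 and ZtSDHC3; pTet::SDHC3 transformant tested under repressed and induced conditions.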"}, "[2]": {"tested_on": "Zymoseptoria tritici isolates", "assay": "Growth tests on solid agar at discriminatory fungicide concentrations", "format": "cell-based", "details": "AE agar, fluopyram 5 mg.L^-1, 18 DPI (procedure of Fig 6)", "source_text": "Fig 6 Resistance to SHA-SDHIs in Z. tritici EU populations. […] Sensitivity data are sorted by genotype according to the presence of the ZtSDHC3 gene. ** p value of 0.0029 in Welch’s corrected unpaired t-test. (B) Solid agar growth of a collection of 93 Z. tritici isolates sampled in 2009 (same set as above). Individual strains from this collection are boxed and numbered 1 to 93. Boxes A and B correspond to reference resistant strains 06STD024 and 07STGB009 respectively. Box C corresponds to IPO323 reference sensitive isolate. The yellow framed boxes correspond to strains carrying the ZtSDHC3 gene. Yellow arrow designates strain 09STIR20.1 (number 78) carrying a non-functional alt-SDHC (frameshift, S6 Table).\nA large scale spotting assay of 96 isolates (Fig 6) was performed using the V&P 96 floating pin tool VP408FP6 (V&P Scientific), equipped with flat tip FP6 pins of 1.58 mm diameter (resulting in approx. 0.4 μl transfer volume). Source cultures for cell spotting were grown in 100 μl YPD liquid medium in a 96 well flat bottom plate (Corning, 3370) at 18°C for 11 days (average cell density of 3.5·10^6/ml), then diluted 1:2x in fresh YPD medium and incubated for another 1.5 h before transfer with the pin tool (approx. 700 cells per spot) onto AE agar with or without fungicide. Plates were incubated at 20°C in the dark for up to 18 days. Smaller scale spotting assays (Figs 4 and 8) were performed using 5 days V8-agar plates inoculums adjusted to 2.10^6 spores.mL^-1 in water and diluted in steps of 3. 2μL of spore suspension was spotted on the plates, and the plates were incubated shielded from light at 21°C for 6 days."}, "[3]": {"tested_on": "Zymoseptoria tritici field and genetically modified strains", "assay": "Liquid culture assay for fungicide sensitivity determination", "format": "cell-based", "details": "Zymoseptoria tritici", "description": "Sensitivity towards commercial fungicides was determined for a set of 99 SHA-SDHI-naïve Z. tritici field isolates sampled in Europe between 2006 and 2009. The EC50 of these isolates was determined in liquid growth assays and the data obtained compared for each possible pair of SDHI fungicides (cross-resistance (XR) plots, Fig 1). […] Comparative succinate-quinone reductase (SQR) enzyme inhibition tests were performed with mitochondria extracted from a panel of SHA-SDHIs tolerant and sensitive isolates.\nIn order to characterize in more depth the mechanisms driving sensitivity differences across the isolates, a subset of eight isolates carrying the ZtSDHC3 gene was analyzed for their sensitivity to SDHIs, alt-SDHC expression and splicing patterns. Liquid culture growth sensitivity tests were performed to determine EC50s for this set of isolates towards a wide range of commercial and research SDHIs (S5 Table).\nPre-culture of the inoculum and fungicide sensitivity tests were performed following previously described procedures. Different ranges of inhibitor concentrations were used for population monitoring and for the detailed phenotyping of a selected set of individual field isolates and genetically modified strains. For fungicide sensitivity monitoring of European field populations, final inhibitors concentrations were between 100 mg.L^-1 and 0.0001 mg.L^-1 with uniform 10x dilution steps (7 inhibitor concentrations + DMSO control). For refined sensitivity analysis of a smaller panel of isolates final inhibitor concentrations ranged between 0.5 mM and 0.47 nM with uniform 4x dilution factor steps (11 inhibitor concentrations+ DMSO control)."}, "[4]": {"target": "altC-SQR (altC) of D024 SDHC1 KO mitochondria (Zymoseptoria tritici, UniProt A0A1X7RQW2+F9X9V6+O42772)", "sequence (A0A1X7RQW2 36-181)": "as the sequence (A0A1X7RQW2 36-181) above", "sequence (O42772 20-297)": "as the sequence (O42772 20-297) above", "sequence (F9X9V6 1-193)": "as the sequence (F9X9V6 1-193) above", "sequence (F9WWR1 41-643 partner)": "as the sequence (F9WWR1 41-643 partner) above", "assay": "Succinate-quinone (SQR) SDHI sensitivity assay on purified mitochondria, 06STD024 SDHC1 KO", "format": "biochemical", "details": "for RF (resistance factor), D024 SDHC1 KO (altC): IC50 ratio compared to IPO323 values", "summary_of_the_method": "as §1"}, "[5]": {"tested_on": "SQR (SDHC / altC) of IPO323 pTet::SDHC3 transformant, induced", "assay": "Succinate-quinone (SQR) SDHI sensitivity assay on purified mitochondria, IPO323 pTet::SDHC3 induced", "format": "biochemical, Zymoseptoria tritici", "details": "IPO323 pTet::SDHC3 transformant grown in the absence of doxycycline; mean of three ± SD", "summary_of_the_method": "as §1"}, "[6]": {"target": "SQR (SDHC) of D024 SDHC3 KO mitochondria (Zymoseptoria tritici, UniProt F9X9V6+F9XH52+O42772)", "sequence (F9XH52 44-187)": "as the sequence (F9XH52 44-187) above", "sequence (O42772 19-297)": "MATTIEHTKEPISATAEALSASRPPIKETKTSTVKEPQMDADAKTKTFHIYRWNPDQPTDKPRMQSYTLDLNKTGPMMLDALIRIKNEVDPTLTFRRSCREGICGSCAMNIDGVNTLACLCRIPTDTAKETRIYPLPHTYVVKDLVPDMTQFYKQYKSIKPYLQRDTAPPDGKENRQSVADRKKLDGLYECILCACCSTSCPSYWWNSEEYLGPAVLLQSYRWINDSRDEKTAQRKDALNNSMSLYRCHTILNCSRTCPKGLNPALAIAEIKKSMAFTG", "sequence (F9X9V6 1-193)": "as the sequence (F9X9V6 1-193) above", "sequence (F9WWR1 29-643 partner)": "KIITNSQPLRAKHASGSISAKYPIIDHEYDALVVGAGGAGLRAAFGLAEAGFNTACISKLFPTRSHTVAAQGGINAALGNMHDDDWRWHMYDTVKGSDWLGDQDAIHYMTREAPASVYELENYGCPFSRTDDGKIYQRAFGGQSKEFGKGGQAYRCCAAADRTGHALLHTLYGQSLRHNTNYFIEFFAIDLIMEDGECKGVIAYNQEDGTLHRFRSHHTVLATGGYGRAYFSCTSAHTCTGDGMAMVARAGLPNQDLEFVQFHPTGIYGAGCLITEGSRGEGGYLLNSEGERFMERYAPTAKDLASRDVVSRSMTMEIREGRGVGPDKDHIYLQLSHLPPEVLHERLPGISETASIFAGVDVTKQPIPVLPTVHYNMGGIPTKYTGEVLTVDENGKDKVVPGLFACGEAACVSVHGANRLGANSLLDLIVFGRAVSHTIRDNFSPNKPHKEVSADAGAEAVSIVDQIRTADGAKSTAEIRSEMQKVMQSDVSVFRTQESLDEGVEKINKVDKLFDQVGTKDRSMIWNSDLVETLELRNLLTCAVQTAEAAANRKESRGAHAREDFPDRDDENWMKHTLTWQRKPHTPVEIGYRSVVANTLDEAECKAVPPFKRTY", "assay": "Succinate-quinone (SQR) SDHI sensitivity assay on purified mitochondria, 06STD024 SDHC3 KO", "format": "biochemical", "summary_of_the_method": "(§2)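 Mitochondria purified from each strain were used for succinate:ubiquinone/DCPIP reductase assays, with suspensions adjusted to similar initial velocity (1 OD595nm hour^-1). Inhibitor was tested at 0.047 nM–50 μM in 4x steps (11 concentrations plus DMSO). IC50 came from non-linear fits of absorbance slopes (OD/min) against log concentration.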"}, "[7]": {"target": "WT-SQR (SDHC), IPO323 mitochondria (Zymoseptoria tritici, UniProt F9X9V6+F9XH52+O42772)", "assay": "Succinate-quinone (SQR) SDHI sensitivity assay on purified mitochondria, IPO323", "format": "biochemical", "summary_of_the_method": "as §2"}, "[8]": {"details": "IC50 ratio compared to IPO323 values"}}, "note": "Where two headings read alike, the source gives them in different places.", "data": [{"smiles": "O=C(NCCc1ncc(C(F)(F)F)cc1Cl)c1ccccc1C(F)(F)F", "note": "[Fluopyram]", "values": [{"measurement": "RF (resistance factor), pTet Repressed (SDHC / altC)", "setting": "[1]; [8]", "value": 1.8}, {"measurement": "IC50", "setting": "[1]; IPO323 pTet::SDHC3 transformant grown in presence of 30 mg.L^-1 doxycycline, mean of three ± SD", "value": "21.9 ± 7.7", "unit": "nM"}, {"measurement": "Growth phenotype on SDHI-amended plate", "setting": "[2]; strain 06STD024", "value": "Very strong"}, {"measurement": "Growth phenotype on SDHI-amended plate", "setting": "[2]; strain 07STGB009", "value": "Very strong"}, {"measurement": "Growth phenotype on SDHI-amended plate", "setting": "[2]; strain 09STD041", "value": "Weak"}, {"measurement": "Growth phenotype on SDHI-amended plate", "setting": "[2]; strain 09STD053", "value": "Weak"}, {"measurement": "Growth phenotype on SDHI-amended plate", "setting": "[2]; strain 09STF011", "value": "Moderate"}, {"measurement": "Growth phenotype on SDHI-amended plate", "setting": "[2]; strain 09STF037", "value": "Very weak"}, {"measurement": "Growth phenotype on SDHI-amended plate", "setting": "[2]; strain 09STF112", "value": "Strong"}, {"measurement": "Growth phenotype on SDHI-amended plate", "setting": "[2]; strain 09STIR20.3", "value": "Very weak"}, {"measurement": "Growth phenotype on SDHI-amended plate", "setting": "[2]; strain IPO323", "value": "No"}, {"measurement": "Growth phenotype on SDHI-amended plate", "setting": "[2]; strain IPO94269", "value": "No"}, {"measurement": "EC50", "setting": "[3]; read-out: EC50 (nM) Mean, strain 06STD024, liquid culture sensitivity", "value": 9360, "unit": "nM"}, {"measurement": "EC50", "setting": "[3]; read-out: EC50 (nM) Mean, strain 07STGB009, liquid culture sensitivity", "value": 10900, "unit": "nM"}, {"measurement": "EC50", "setting": "[3]; read-out: EC50 (nM) Mean, strain 09STD041, liquid culture sensitivity", "value": 1370, "unit": "nM"}, {"measurement": "EC50", "setting": "[3]; read-out: EC50 (nM) Mean, strain 09STD053, liquid culture sensitivity", "value": 558, "unit": "nM"}, {"measurement": "EC50", "setting": "[3]; read-out: EC50 (nM) Mean, strain 09STF011, liquid culture sensitivity", "value": 3570, "unit": "nM"}, {"measurement": "EC50", "setting": "[3]; read-out: EC50 (nM) Mean, strain 09STF037, liquid culture sensitivity", "value": 461, "unit": "nM"}, {"measurement": "EC50", "setting": "[3]; read-out: EC50 (nM) Mean, strain 09STF112, liquid culture sensitivity", "value": 2890, "unit": "nM"}, {"measurement": "EC50", "setting": "[3]; read-out: EC50 (nM) Mean, strain 09STIR20.3, liquid culture sensitivity", "value": 419, "unit": "nM"}, {"measurement": "EC50", "setting": "[3]; read-out: EC50 (nM) Mean, strain Flu21 (SDHC1_A84I), liquid culture sensitivity", "value": 4580, "unit": "nM"}, {"measurement": "EC50", "setting": "[3]; read-out: EC50 (nM) Mean, strain IPO323, liquid culture sensitivity", "value": 222, "unit": "nM"}, {"measurement": "EC50", "setting": "[3]; read-out: EC50 (nM) Mean, strain IPO94269, liquid culture sensitivity", "value": 147, "unit": "nM"}, {"measurement": "EC50", "setting": "[3]; read-out: EC50 (nM) Mean, strain KO_SDHC1_T1, liquid culture sensitivity", "value": 25600, "unit": "nM"}, {"measurement": "EC50", "setting": "[3]; read-out: EC50 (nM) Mean, strain KO_SDHC1_T3, liquid culture sensitivity", "value": 21200, "unit": "nM"}, {"measurement": "EC50", "setting": "[3]; read-out: EC50 (nM) Mean, strain KO_SDHC3_T4, liquid culture sensitivity", "value": 350, "unit": "nM"}, {"measurement": "EC50", "setting": "[3]; read-out: EC50 (nM) Mean, strain KO_SDHC3_T13, liquid culture sensitivity", "value": 351, "unit": "nM"}, {"measurement": "EC50", "setting": "[3]; read-out: EC50 (nM) Mean, strain pTet::SDHC3_I78A_T1, liquid culture sensitivity", "value": 354, "unit": "nM"}, {"measurement": "EC50", "setting": "[3]; read-out: EC50 (nM) Mean, strain pTet::SDHC3_I78A_T5, liquid culture sensitivity", "value": 818, "unit": "nM"}, {"measurement": "EC50", "setting": "[3]; read-out: EC50 (nM) Mean, strain pTet::SDHC3_I78A_T15, liquid culture sensitivity", "value": 552, "unit": "nM"}, {"measurement": "EC50", "setting": "[3]; read-out: EC50 (nM) Mean, strain pTet::SDHC3_I78A_T35, liquid culture sensitivity", "value": 143, "unit": "nM"}, {"measurement": "EC50", "setting": "[3]; read-out: EC50 (nM) Mean, strain pTet::SDHC3_T1, liquid culture sensitivity", "value": 16000, "unit": "nM"}, {"measurement": "EC50", "setting": "[3]; read-out: EC50 (nM) Mean, strain pTet::SDHC3_T2, liquid culture sensitivity", "value": 14300, "unit": "nM"}, {"measurement": "EC50", "setting": "[3]; read-out: EC50 (nM) Mean, strain pTet::SDHC3_T3, liquid culture sensitivity", "value": 6750, "unit": "nM"}, {"measurement": "EC50", "setting": "[3]; read-out: EC50 (nM) Mean, strain pTet::SDHC3_T7, liquid culture sensitivity", "value": 24500, "unit": "nM"}, {"measurement": "EC50", "setting": "[3]; read-out: Fluopyram EC50 in liquid culture, panel of ZtSDHC3 containing isolates, field isolates collected in 2009 carrying ZtSDHC3, from sensitive to resistant", "value": "0.3 to 3.2", "unit": "µg/mL"}, {"measurement": "RF (resistance factor), D024 SDHC1 KO (altC)", "setting": "[4]", "value": 93.4}, {"measurement": "RF (resistance factor), D024 SDHC1 KO (altC)", "setting": "[4]; listed as fluopyram", "value": "~100"}, {"measurement": "IC50", "setting": "[4]; mitochondria of 06STD024 ZtSDHC1 deletion mutant (pure altC-SQR), mean of three ± SD", "value": "1160 ± 201", "unit": "nM"}, {"measurement": "IC50", "setting": "[5]", "value": "548 ± 68.8", "unit": "nM"}, {"measurement": "RF (resistance factor), D024 SDHC3 KO (SDHC)", "setting": "[6]; [8]", "value": 0.8}, {"measurement": "IC50", "setting": "[6]; mitochondria of 06STD024 ZtSDHC3 deletion mutant, mean of three ± SD", "value": "10.1 ± 2", "unit": "nM"}, {"measurement": "IC50", "setting": "[7]", "value": "12.5 ± 2", "unit": "nM"}]}]}
